By IC50 is commonly meant the concentration at which inhibition is half-maximal.

The target in the test is T1, CFTR channel (Homo sapiens, UniProt P13569).
T1 construct: results in the phosphorylation and opening of CFTR anion channels; host or cells: human colonic T84 cells
T1 sequence (P13569 whole entry): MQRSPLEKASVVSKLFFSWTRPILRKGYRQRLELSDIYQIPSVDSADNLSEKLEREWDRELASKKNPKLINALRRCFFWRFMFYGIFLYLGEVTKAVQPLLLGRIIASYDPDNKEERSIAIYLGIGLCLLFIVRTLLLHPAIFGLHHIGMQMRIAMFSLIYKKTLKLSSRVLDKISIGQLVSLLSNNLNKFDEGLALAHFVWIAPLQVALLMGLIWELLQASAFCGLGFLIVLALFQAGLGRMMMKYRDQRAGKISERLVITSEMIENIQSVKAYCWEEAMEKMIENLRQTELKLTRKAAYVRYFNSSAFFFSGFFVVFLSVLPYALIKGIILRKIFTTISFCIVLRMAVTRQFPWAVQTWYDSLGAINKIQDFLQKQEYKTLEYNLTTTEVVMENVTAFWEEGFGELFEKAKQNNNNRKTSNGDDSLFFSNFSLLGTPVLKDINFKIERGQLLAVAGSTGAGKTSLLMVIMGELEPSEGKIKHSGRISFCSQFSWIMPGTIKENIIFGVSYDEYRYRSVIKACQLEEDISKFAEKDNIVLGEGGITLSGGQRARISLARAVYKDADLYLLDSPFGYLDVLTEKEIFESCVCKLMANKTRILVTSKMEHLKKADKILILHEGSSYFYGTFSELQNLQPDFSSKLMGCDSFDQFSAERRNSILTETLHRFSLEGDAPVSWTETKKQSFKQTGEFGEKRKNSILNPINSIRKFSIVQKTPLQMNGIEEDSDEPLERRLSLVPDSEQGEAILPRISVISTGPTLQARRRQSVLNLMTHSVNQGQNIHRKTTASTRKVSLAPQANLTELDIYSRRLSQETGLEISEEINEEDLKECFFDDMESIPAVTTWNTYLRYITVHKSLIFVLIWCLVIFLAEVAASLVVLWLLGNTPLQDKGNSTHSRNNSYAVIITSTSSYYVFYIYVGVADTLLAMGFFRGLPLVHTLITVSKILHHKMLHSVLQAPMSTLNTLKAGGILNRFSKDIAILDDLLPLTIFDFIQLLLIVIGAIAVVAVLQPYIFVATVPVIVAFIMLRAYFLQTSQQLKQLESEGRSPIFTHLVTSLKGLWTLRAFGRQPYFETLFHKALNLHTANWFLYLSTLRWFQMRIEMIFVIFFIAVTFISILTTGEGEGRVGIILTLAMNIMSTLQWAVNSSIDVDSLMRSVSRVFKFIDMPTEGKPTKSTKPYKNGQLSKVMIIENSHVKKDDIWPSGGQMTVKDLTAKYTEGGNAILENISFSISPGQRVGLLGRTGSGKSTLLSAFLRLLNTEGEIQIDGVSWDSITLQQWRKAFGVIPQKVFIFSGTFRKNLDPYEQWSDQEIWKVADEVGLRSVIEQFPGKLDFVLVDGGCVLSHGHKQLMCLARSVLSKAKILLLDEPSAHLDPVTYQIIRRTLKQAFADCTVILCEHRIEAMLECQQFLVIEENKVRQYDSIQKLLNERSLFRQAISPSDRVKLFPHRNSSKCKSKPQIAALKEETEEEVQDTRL
Briefly: T84 assay (FLIPR membrane potential, forskolin/IBMX-stimulated CFTR channel activity). Format: cell-based. The conditions noted are these: Human colonic T84 cells; 10 μM forskolin + 100 μM IBMX; average of at least 2 runs unless marked n = 1. As to the method: (§1) For example, Human colonic T84 cells can be acquired from the European Collection of Cell Cultures (ECACC) and grown in standard culture conditions as described by the supplier. On the day before assay 25,000 T84 cells per well are plated into standard black walled, clear bottom 384-well assay plates in standard growth medium consisting of DMEM:F12 with 10% FBS and incubated overnight. On the day of the assay the plates are washed using a standard assay buffer (HBSS with 10 mM Hepes) and incubated for 15 minutes in serum free cell culture medium before the addition of a commercially available membrane potential sensitive fluorescent dye (FLIPR Red membrane potential dye, Molecular Devices Corporation). T84 cells are incubated with the FLIPR Red membrane potential dye for 45 minutes in the presence and absence of test compound before being transferred to a commercially available fluorescence imaging plate reader (FLIPR384, Molecular Devices Corporation). Fluorescence levels are monitored continuously every second for 150 seconds; after an initial 10 second baseline, CFTR channel activity is stimulated through the addition of 10 μM forskolin in the presence of 100 μM of the phosphodiesterase inhibitor iso-butyl-methylxanthine (IBMX). Addition of the forskolin leads to the activation of intracellular adenylyl cylase 1, elevating cAMP levels and results in the phosphorylation and opening of CFTR anion channels. CFTR channel opening causes chloride ion efflux and subsequent depolarization of the cells, which is measured by an increase in fluorescence. CFTR inhibitor compounds prevent cell depolarization and the associated increase in fluorescence.
as §1, with “Human colonic” for “For example, Human colonic”, “T84 cells are acquired from” for “T84 cells can be acquired from”, “(ECACC) and are grown in” for “(ECACC) and grown in”
With `Oc1c(Br)cc(-c2noc(C(O)(Cc3ccccc3)Cc3ccccc3)n2)cc1Br` [Compound 1, 2,6-dibromo-4-(5-(2-hydroxy-1,3-diphenylpropan-2-yl)-1,2,4-oxadiazol-3-yl)phenol], the IC50 came out at 3.89 µM.

As for `Oc1c(Br)cc(-c2noc(C(O)(c3cccc(F)c3)c3cccc(F)c3)n2)cc1Br` [Compound 2, 4-(5-(bis(3-fluorophenyl)(hydroxy)methyl)-1,2,4-oxadiazol-3-yl)-2,6-dibromophenol], the 50% inhibitory concentration (IC50) worked out at 5.04 µM.

Take `COc1cccc(C(O)(c2cccc(OC)c2)c2nc(-c3cc(Br)c(O)c(Br)c3)no2)c1` [Compound 3, 2,6-dibromo-4-(5-(hydroxybis(3-methoxyphenyl)methyl)-1,2,4-oxadiazol-3-yl)phenol]: the half-inhibitory concentration (IC50) stood at 5.47 µM.

Take `Oc1c(Br)cc(-c2noc(C(O)(c3ccc(Cl)cc3)c3ccc(Cl)cc3)n2)cc1Br` [Compound 4, 4-(5-(bis(4-chlorophenyl)(hydroxy)methyl)-1,2,4-oxadiazol-3-yl)-2,6-dibromophenol]: the IC50 amounted to 5.63 µM.

Turning to `Oc1c(Br)cc(-c2noc(C(O)(c3ccccc3)c3ccccc3)n2)cc1Br` [Compound 5, 2,6-dibromo-4-(5-(hydroxydiphenylmethyl)-1,2,4-oxadiazol-3-yl)phenol], the IC50 is 5.85 µM.

On to `CC(C)(C)c1ccc(C(O)(c2ccc(C(C)(C)C)cc2)c2nc(-c3cc(Br)c(O)c(Br)c3)no2)cc1` [Compound 6, 4-(5-(bis(4-tert-butylphenyl)(hydroxy)methyl)-1,2,4-oxadiazol-3-yl)-2,6-dibromophenol], for which the 50% inhibitory concentration (IC50) was 18.8 µM.

Take `Oc1c(Br)cc(-c2noc(C(O)(c3ccc4ccccc4c3)c3ccc4ccccc4c3)n2)cc1Br` [Compound 7, 2,6-dibromo-4-(5-(hydroxydinaphthalen-2-ylmethyl)-1,2,4-oxadiazol-3-yl)phenol]: the IC50 amounted to 18.7 µM.

On to `Oc1c(Br)cc(-c2noc(C(O)(c3cccc(Cl)c3)c3cccc(Cl)c3)n2)cc1Br` [Compound 8, 4-(5-(bis(3-chlorophenyl)(hydroxy)methyl)-1,2,4-oxadiazol-3-yl)-2,6-dibromophenol], for which the IC50 is 11.4 µM.

As for `COc1cccc(C(O)(c2cccc(OC)c2)c2nc(-c3cc(Cl)c(O)c(Cl)c3)no2)c1` [Compound 9, 2,6-dichloro-4-(5-(hydroxybis(3-methoxyphenyl)methyl)-1,2,4-oxadiazol-3-yl)phenol], the concentration for half-maximal inhibition (IC50) was determined as 9.65 µM.

Take `Oc1c(Cl)cc(-c2noc(C(O)(c3ccccc3)c3ccccc3)n2)cc1Cl` [Compound 10, 2,6-dichloro-4-(5-(hydroxydiphenylmethyl)-1,2,4-oxadiazol-3-yl)phenol]: the 50% inhibitory concentration (IC50) was determined as 6.94 µM.

Turning to `Oc1c(Cl)cc(-c2noc(C(O)(c3ccc(Cl)cc3)c3ccc(Cl)cc3)n2)cc1Cl` [Compound 11, 4-(5-(bis(4-chlorophenyl)(hydroxy)methyl)-1,2,4-oxadiazol-3-yl)-2,6-dichlorophenol], the IC50 is 11.1 µM.

`CC#CC(O)(C#CC)c1nc(-c2cc(Br)c(O)c(Br)c2)no1` [Compound 12, 2,6-dibromo-4-(5-(4-hydroxyhepta-2,5-diyn-4-yl)-1,2,4-oxadiazol-3-yl)phenol]: the IC50 is 16.2 µM.

Source of the values: patent US20090264481A1, “Compounds, Compositions and Methods Comprising Oxadiazole Derivatives” (Institute for OneWorld Health, priority 2008, published 2009).
